Drawing on patent publication US20240376094A2, “SELECTIVE BCL-XL PROTAC COMPOUNDS AND METHODS OF USE” (Les Laboratoires Servier, priority 2021, published 2024), this text covers remaining activity and DC50 for 10 compounds.

For one test, the target named is T1, endogenous BCL-xL (Homo sapiens, UniProt Q07817).
T1 construct: endogenous in cells; host or cells: COR-L105 (ECACC No. 92031918); NCI-H1650 (ATCC No. CRL-5883)
Description: Degradation of endogenous BCL-xL in COR-L105 (ProteinSimple Jess). The test is classed as cell-based. To be noted: COR-L105, 24 h, COR-L105, dose 300 nM, read-out: % BCL-xL vs. Untreated, COR-L105. An outline of the steps:
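COR-L105 cells (2,000,000/well) treated 24 h at 37 °C with compound at 100–300 nM final, singlet, alongside untreated cells. RIPA lysates normalized by BCA to 1.5 mg/mL, then BCL-xL detected by capillary immunoassay (2–40 kDa Jess) comparing treated with untreated lysates.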

The next test has as its target T2, Bcl-xL (Homo sapiens, UniProt Q07817).
T2 construct: Measured levels of Bcl-xL protein of HCT116 cells treated with the tested compounds; host or cells: HCT116
Description: HCT116 Bcl-xL degradation, capillary-based immunoassay (WES). The test is classed as cell-based. Conditions: for DC50: HCT116, 24 h, 9-point serial dilution; for remaining activity at 0.01 µM / remaining activity at 0.1 µM: HCT-116, 24 h, % of untreated cells; for remaining activity at 0.01 µM: HCT116, 10 nM; for remaining activity at 0.1 µM: HCT116, 100 nM. An outline of the steps: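 Bcl-xL protein level by capillary WES immunoassay in HCT116 lysates, as % of untreated after cofilin normalization. Compound exposure was 24 h at 10 and 100 nM and/or a 9-point series, in quadruplicate. Four-parameter fitting gave the DC50.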

The structures appear in SMILES notation. A value given as a limit tells only on which side of the number the result lay.

T2 sequence (Q07817 whole entry): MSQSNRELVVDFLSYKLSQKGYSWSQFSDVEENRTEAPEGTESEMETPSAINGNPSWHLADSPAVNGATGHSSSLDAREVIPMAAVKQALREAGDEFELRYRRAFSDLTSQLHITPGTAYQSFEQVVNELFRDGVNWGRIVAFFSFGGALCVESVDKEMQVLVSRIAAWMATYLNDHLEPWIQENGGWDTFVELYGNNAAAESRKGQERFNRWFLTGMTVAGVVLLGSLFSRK
T1 sequence (Q07817 whole entry): as above

On to `Cc1ncsc1-c1ccc([C@H](C)NC(=O)[C@@H]2C[C@@H](O)CN2C(=O)[C@@H](NC(=O)CCCCCCCCCCCN2CCN(CC#Cc3ccc(OCCCc4sc(N5CCCc6c5nnc(Nc5nc7ccccc7s5)c6C)nc4C(=O)O)c(F)c3)CC2)C(C)(C)C)cc1` [Example 51, 2-(3-(benzo[d]thiazol-2-ylamino)-4-methyl-6,7-dihydropyrido [2,3-c]pyridazin-8(5H)-yl)-5-(3-(2-fluoro-4-(3-(4-(12-(((S)-1-((2S,4R)-4-hydroxy-2-(((S)-1-(4-(4-methylthiazol-5-yl)phenyl)ethyl)carbamoyl)pyrrolidin-1-yl)-3,3-dimethyl-1-oxobutan-2-yl)amino)-12-oxododecyl)piperazin-1-yl)prop-1-yn-1-yl)phenoxy)propyl)thiazole-4-carboxylic acid], for which the remaining activity at 0.3 µM at endogenous BCL-xL is 12.1%.

The DC50 is the concentration at which degradation of the target reaches its halfway point. A high value points to degradation only at high concentration. At Bcl-xL, `Cc1ncsc1-c1ccc([C@H](C)NC(=O)C2CC(O)CN2C(=O)C(NC(=O)CCCCCCCCCCCN2CCN(CC#Cc3ccc(OCCCc4sc(N5CCCc6c5nnc(Nc5nc7ccccc7s5)c6C)nc4C(=O)O)c(F)c3)CC2)C(C)(C)C)cc1` (stereo in doubt) [Example 31, 2-[3-(1,3-benzothiazol-2-ylamino)-4-methyl-6,7-dihydro-5H-pyrido[2,3-c]pyridazin-8-yl]-5-[3-[2-fluoro-4-[3-[4-[12-[[(1S)-1-[(2S,4R)-4-hydroxy-2-[[(1S)-1-[4-(4-methylthiazol-5-yl)phenyl]ethyl]carbamoyl]pyrrolidine-1-carbonyl]-2,2-dimethyl-propyl]amino]-12-oxo-dodecyl]piperazin-1-yl]prop-1-ynyl]phenoxy]propyl] thiazole-4-carboxylic acid] yielded a half-maximal degradation concentration (DC50) of 1.22 nM, a remaining activity at 0.01 µM of 11% and a remaining activity at 0.1 µM of 6%.

For `Cc1ncsc1-c1ccc([C@H](C)NC(=O)[C@@H]2C[C@@H](O)CN2C(=O)[C@@H](NC(=O)CCCC(=O)N2CCN(CC#Cc3ccc(OCCCc4sc(N5CCCc6c5nnc(Nc5nc7ccccc7s5)c6C)nc4C(=O)O)c(F)c3)CC2)C(C)(C)C)cc1` [Example 35, 2-(3-(benzo[d]thiazol-2-ylamino)-4-methyl-6,7-dihydropyrido [2,3-c]pyridazin-8(5H)-yl)-5-(3-(2-fluoro-4-(3-(4-(5-(((S)-1-((2S,4R)-4-hydroxy-2-(((S)-1-(4-(4-methylthiazol-5-yl)phenyl)ethyl)carbamoyl)pyrrolidin-1-yl)-3,3-dimethyl-1-oxobutan-2-yl)amino)-5-oxopentanoyl)piperazin-1-yl)prop-1-yn-1-yl)phenoxy)propyl)thiazole-4-carboxylic acid], on endogenous BCL-xL, the remaining activity at 0.3 µM is above 90%.

On Bcl-xL, `Cc1ncsc1-c1ccc([C@H](C)NC(=O)[C@@H]2C[C@@H](O)CN2C(=O)[C@@H](NC(=O)CCCCCCCCN(C)CCOC23CC4(C)CC(C)(CC(Cn5ncc(-c6ccc(N7CCCc8c7nnc(Nc7nc9ccccc9s7)c8C)nc6C(=O)O)c5C)(C4)C2)C3)C(C)(C)C)cc1` [Example 5, 6-[3-(1,3-benzothiazol-2-ylamino)-4-methyl-6,7-dihydro-5H-pyrido[2,3-c]pyridazin-8-yl]-3-[1-[[3-[2-[[9-[[(1S)-1-[(2S,4R)-4-hydroxy-2-[[(1S)-1-[4-(4-methylthiazol-5-yl)phenyl]ethyl]carbamoyl]pyrrolidine-1-carbonyl]-2,2-dimethyl-propyl]amino]-9-oxo-nonyl]-methyl-amino]ethoxy]-5,7-dimethyl-1-adamantyl]methyl]-5-methyl-pyrazol-4-yl]pyridine-2-carboxylic acid] had a DC50 of 2.45 nM, a remaining activity at 0.01 µM of 54% and a remaining activity at 0.1 µM of 19%.

On to `Cc1ncsc1-c1ccc([C@H](C)NC(=O)[C@@H]2C[C@@H](O)CN2C(=O)[C@@H](NC(=O)CC23CC4CC(C2)CC(CC(=O)N2CCN(CC#Cc5ccc(OCCCc6sc(N7CCCc8c7nnc(Nc7nc9ccccc9s7)c8C)nc6C(=O)O)c(F)c5)CC2)(C4)C3)C(C)(C)C)cc1` [Example 42, 2-(3-(benzo[d]thiazol-2-ylamino)-4-methyl-6,7-dihydropyrido [2,3-c]pyridazin-8(5H)-yl)-5-(3-(2-fluoro-4-(3-(4-(2-((3S,5R)-3-(2-(((S)-1-((2S,4R)-4-hydroxy-2-(((S)-1-(4-(4-methylthiazol-5-yl)phenyl)ethyl)carbamoyl)pyrrolidin-1-yl)-3,3-dimethyl-1-oxobutan-2-yl)amino)-2-oxoethyl)adamantan-1-yl)acetyl)piperazin-1-yl)prop-1-yn-1-yl)phenoxy)propyl)thiazole-4-carboxylic acid], for which the remaining activity at 0.3 µM on endogenous BCL-xL is 33.3%.

On to `Cc1ncsc1-c1ccc(CNC(=O)C2C[C@@H](O)CN2C(=O)C(NC(=O)CCCCCC(=O)N2CCN(CC#Cc3ccc(OCCCc4sc(N5CCCc6c5nnc(Nc5nc7ccccc7s5)c6C)nc4C(=O)O)c(F)c3)CC2)C(C)(C)C)cc1` (stereo in doubt) [Example 15, 2-[3-(1,3-benzothiazol-2-ylamino)-4-methyl-6,7-dihydro-5H-pyrido[2,3-c]pyridazin-8-yl]-5-[3-[2-fluoro-4-[3-[4-[7-[[(1S)-1-[(2S,4R)-4-hydroxy-2-[[4-(4-methylthiazol-5-yl)phenyl]methylcarbamoyl]pyrrolidine-1-carbonyl]-2,2-dimethyl-propyl]amino]-7-oxo-heptanoyl]piperazin-1-yl]prop-1-ynyl]phenoxy]propyl] thiazole-4-carboxylic acid], for which, at Bcl-xL, the DC50 was found to be 0.462 nM, the remaining activity at 0.01 µM was 39% and the remaining activity at 0.1 µM is 23%.

With `Cc1ncsc1-c1ccc([C@H](C)NC(=O)[C@@H]2C[C@@H](O)CN2C(=O)[C@@H](NC(=O)CCCCCCCCCCC(=O)N2CCN(CCOC34CC5(C)CC(C)(CC(Cn6ncc(-c7ccc(N8CCCc9c8nnc(Nc8nc%10ccccc%10s8)c9C)nc7C(=O)O)c6C)(C5)C3)C4)CC2)C(C)(C)C)cc1` [Example 47, 6-(3-(benzo[d]thiazol-2-ylamino)-4-methyl-6,7-dihydropyrido [2,3-c]pyridazin-8(5H)-yl)-3-(1-(((1r,3s,5R,7S)-3-(2-(4-(12-(((S)-1-((2S,4R)-4-hydroxy-2-(((S)-1-(4-(4-methylthiazol-5-yl)phenyl)ethyl)carbamoyl)pyrrolidin-1-yl)-3,3-dimethyl-1-oxobutan-2-yl)amino)-12-oxododecanoyl)piperazin-1-yl)ethoxy)-5,7-dimethyladamantan-1-yl)methyl)-5-methyl-1H-pyrazol-4-yl)picolinic acid], the remaining activity at 0.3 µM on endogenous BCL-xL was determined as 22.3%.

Consider `Cc1ncsc1-c1ccc([C@H](C)NC(=O)[C@@H]2C[C@@H](O)CN2C(=O)[C@@H](NC(=O)CCCCCCCCCCC(=O)N2CCN(CC#Cc3ccc(OCCCc4sc(N5CCCc6c5nnc(Nc5nc7ccccc7s5)c6C)nc4C(=O)O)c(F)c3)CC2)C(C)(C)C)cc1` [Example 46, 2-(3-(benzo[d]thiazol-2-ylamino)-4-methyl-6,7-dihydropyrido [2,3-c]pyridazin-8(5H)-yl)-5-(3-(2-fluoro-4-(3-(4-(12-(((S)-1-((2S,4R)-4-hydroxy-2-(((S)-1-(4-(4-methylthiazol-5-yl)phenyl)ethyl)carbamoyl)pyrrolidin-1-yl)-3,3-dimethyl-1-oxobutan-2-yl)amino)-12-oxododecanoyl)piperazin-1-yl)prop-1-yn-1-yl)phenoxy)propyl)thiazole-4-carboxylic acid], for which, on endogenous BCL-xL, the remaining activity at 0.3 µM turned out to be 22.6%.

As for `Cc1ncsc1-c1ccc([C@H](C)NC(=O)[C@@H]2C[C@@H](O)CN2C(=O)[C@@H](NC(=O)CCCCCCCN(C)CCOC23CC4(C)CC(C)(CC(Cn5ncc(-c6ccc(N7CCCc8c7nnc(Nc7nc9ccccc9s7)c8C)nc6C(=O)O)c5C)(C4)C2)C3)C(C)(C)C)cc1` [Example 6, 6-[3-(1,3-benzothiazol-2-ylamino)-4-methyl-6,7-dihydro-5H-pyrido[2,3-c]pyridazin-8-yl]-3-[1-[[3-[2-[[8-[[(1S)-1-[(2S,4R)-4-hydroxy-2-[[(1S)-1-[4-(4-methylthiazol-5-yl)phenyl]ethyl]carbamoyl]pyrrolidine-1-carbonyl]-2,2-dimethyl-propyl]amino]-8-oxo-octyl]-methyl-amino]ethoxy]-5,7-dimethyl-1-adamantyl]methyl]-5-methyl-pyrazol-4-yl]pyridine-2-carboxylic acid], on Bcl-xL, it took 2.94 nM to reach half-maximal degradation (DC50), the remaining activity at 0.01 µM is 69% and the remaining activity at 0.1 µM is 22%.

On Bcl-xL, `Cc1ncsc1-c1ccc([C@H](C)NC(=O)[C@@H]2C[C@@H](O)CN2C(=O)[C@@H](NC(=O)CCCCCCCCCCCCCCCN(C)CCOC23CC4(C)CC(C)(CC(Cn5ncc(-c6ccc(N7CCCc8c7nnc(Nc7nc9ccccc9s7)c8C)nc6C(=O)O)c5C)(C4)C2)C3)C(C)(C)C)cc1` [Example 1, 6-[3-(1,3-benzothiazol-2-ylamino)-4-methyl-6,7-dihydro-5H-pyrido[2,3-c]pyridazin-8-yl]-3-[1-[[3-[2-[[16-[[(1S)-1-[(2S,4R)-4-hydroxy-2-[[(1S)-1-[4-(4-methylthiazol-5-yl)phenyl]ethyl]carbamoyl]pyrrolidine-1-carbonyl]-2,2-dimethyl-propyl]amino]-16-oxo-hexadecyl]-methyl-amino]ethoxy]-5,7-dimethyl-1-adamantyl]methyl]-5-methyl-pyrazol-4-yl]pyridine-2-carboxylic acid] returned a DC50 of 0.329 nM, a remaining activity at 0.01 µM of 21% and a remaining activity at 0.1 µM of 9%.
